Source: paper PMC7737538 (ACS Medicinal Chemistry Letters, 2020)

Legend:
[1] = tested on: SARS-CoV-2 (two clinical isolates); experiment: SARS-CoV-2 antiviral assay in Vero cells, statements without strain; format: cell-based
[2] = tested on: VZV TK+ strain (strain Oka); format: cell-based, varicella zoster virus; conditions: HEL fibroblasts; strain not given
[3] = tested on: HCMV AD-169 strain; experiment: HCMV antiviral assay in HEL fibroblasts, AD-169 strain; format: cell-based, human cytomegalovirus; conditions: strain not given
[4] = tested on: human rhinovirus (HRV); conditions: read-out: EC50 against human rhinovirus (HRV); in vitro; cited from earlier work
[5] = tested on: Vero cells; conditions: readout not given
[6] = in vitro; conditions: human

SMILES | antiviral activity against SARS-CoV-2 (in words) [1] | activity against VZV (in words) [2] | activity against HCMV (in words) [3] | cytotoxicity in Vero cells (in words) [5] | other results
C[C@H](NP(=O)(OC[C@@]1(F)O[C@@H](n2ccc(N)nc2=O)C(F)(F)[C@@H]1O)Oc1ccccc1)C(=O)OCc1ccccc1 (some centres unmarked) [2b] | minimal antiviral activity | – | – | – | –
O=c1ccn([C@@H]2O[C@](F)(CO)[C@@H](O)C2(F)F)c(=O)[nH]1 [12b] | – | completely devoid of activity | completely devoid of activity | – | –
Nc1ccn([C@@H]2O[C@H](CO)[C@@H](O)C2(F)F)c(=O)n1 [gemcitabine, 2′-deoxy-2′,2′-difluorocytidine, reference compound] | – | – | – | high cytotoxicity | EC50 [4]: 0.81 to 1.92 µM
Nc1ccn(C[C@@H](CO)OCP(=O)(O)O)c(=O)n1 [cidofovir] | – | – | – | – | CC50 [6]: 150 ± 29.1 µM
Nc1nc(O)c2ncn(COC(CO)CO)c2n1 [ganciclovir] | – | – | – | – | CC50 [6]: 231 ± 49.2 µM
CO[C@]1(CO)O[C@@H](n2ccc(N)nc2=O)C(F)(F)[C@@H]1O [1a] | devoid of antiviral activity | completely devoid of activity | completely devoid of activity | devoid of antiviral activity and cytotoxicity | –
CO[C@]1(CO)O[C@@H](n2ccc(=O)[nH]c2=O)C(F)(F)[C@@H]1O [12a] | – | completely devoid of activity | completely devoid of activity | – | –
Nc1ccn([C@@H]2O[C@](F)(CO)[C@@H](O)C2(F)F)c(=O)n1 [1b] | no selective antiviral activity | – | – | – | –
C[C@H](NP(=O)(OC[C@H]1O[C@@H](n2ccc(N)nc2=O)C(F)(F)[C@@H]1O)Oc1ccccc1)C(=O)OCc1ccccc1 (stereo partly drawn) [2c, Benzyl ((((2R,3R,5R)-5-(4-Amino-2-oxopyrimidin-1(2H)-yl)-4,4-difluoro-3-hydroxytetrahydrofuran-2-yl)methoxy)(phenoxy)phosphoryl)-L-alaninate] | lack of activity | – | – | – | –
CO[C@]1(COP(=O)(N[C@@H](C)C(=O)OCc2ccccc2)Oc2ccccc2)O[C@@H](n2ccc(N)nc2=O)C(F)(F)[C@@H]1O (some centres unmarked) [2a] | devoid of antiviral activity | – | – | devoid of antiviral activity and cytotoxicity | –
